Measured values from PMC12627862, “Therapeutic targeting of endothelial calcium signaling accelerates the resolution of lung injury” (Signal Transduction and Targeted Therapy, 2025).
Starred links: 1 amine or outer side, 2 acyl side, 3 side chain; linkers in the order of their positions; H or OH if unused. Positions of bridges follow the written chain, without caps; N, C: chain ends. Non-standard residues stand in square brackets, D forms with d. Residues, ends and D or L forms follow the SMILES beside them. ξ: configuration not given here. X5 = O=C([C@@H]1[C@@H]2CCCC[C@@H]2CN1[*:1])[*:2]; X2 = C[C@@](CCCCC=[*:3])(N[*:1])C(=O)[*:2]; Leu(4,5-dehydro) = C=C(C)C[C@H](N)C(=O)O; Oic = O=C(O)[C@@H]1C[C@@H]2CCCC[C@@H]2N1; X4 = C=C(C)C[C@@H](N[*:1])C(=O)[*:2]; d(tBuAla) = CC(C)(C)C[C@@H](N)C(=O)O; dVal(3-OH) = CC(C)(O)[C@@H](N)C(=O)O; Val(3-OH) = CC(C)(O)[C@H](N)C(=O)O; cisHyp = O=C(O)[C@@H]1C[C@H](O)CN1; tBuAla = CC(C)(C)C[C@H](N)C(=O)O; R5 = C=CCCC[C@@](C)(N)C(=O)O; X1 = O=C(CC(O)CN[*:1])[*:2]; 4Amb = NCc1ccc(C(=O)O)cc1; ξP = O=C(O)C1CCCN1

How the values were obtained:
[1] = Aggregation / solubility at 1 mM; type: physicochemical; details: summary calls it solubility at 1mM
Experimental: (§1) The solubilities of the synthesized compounds were determined experimentally (Supplementary Table 2). Most compounds were highly soluble at a 1 mM concentration; however, some compounds tended to form aggregates. These compounds were excluded from further studies. In addition, we experimentally determined the lipophilicity of each compound, logP(oct/wat)=log(soluteoct/solutewat ), which is the partition coefficient of a compound between aqueous (water) and lipophilic (octanol) phases (Supplementary Table 2).

[2] = Lipophilicity of peptides, logP(oct/wat); type: physicochemical
Experimental: as §1
Lipophilicity of peptides. Two separate solutions were obtained: an aqueous phosphate buffer with saturated n-octanol, and an n-octanol solution with saturated phosphate buffer. Peptides were then dissolved and diluted in the phosphate buffer. Different partitions were then made with different n-octanol to water ratio before shaking for an hour at room temperature. The aqueous phase and n-octanol were allowed to equilibrate, and each phase was extracted and analyzed for peptide concentrations. The ratio of peptide concentration in n-octanol to that in water is expressed as log(P).

[3] = target: EB3 interactions with IP3R3-GFP (Homo sapiens, UniProt Q9UPY8); test: Competitive binding: inhibition of EB3 interaction with IP3R3-GFP in vitro; type: biochemical; details: 250 nM
Sequence of EB3 interactions with IP3R3-GFP (Q9UPY8 whole entry): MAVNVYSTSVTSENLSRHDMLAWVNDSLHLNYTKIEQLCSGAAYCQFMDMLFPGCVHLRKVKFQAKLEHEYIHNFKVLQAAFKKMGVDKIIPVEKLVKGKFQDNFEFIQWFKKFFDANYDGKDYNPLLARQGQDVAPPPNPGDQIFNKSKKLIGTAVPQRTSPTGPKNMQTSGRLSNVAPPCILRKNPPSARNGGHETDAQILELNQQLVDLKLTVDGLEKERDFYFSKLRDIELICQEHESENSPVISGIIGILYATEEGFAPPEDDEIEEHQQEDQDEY
Text: We tested the efficacy of twenty-three compounds in inhibiting EB3 interactions with IP3R3-GFP via an in vitro approach developed by us[12],[13]. […] Guided by NMR studies, we predicted the binding pose of 109 to EB3 via AutoDock Vina[13],[24],[25].

[4] = system: CD1 mice, cecal ligation and puncture; test: Polymicrobial sepsis model (CLP); type: in vivo, mouse; details: CLP 18-gauge; monotherapy: VT-109 0.5 µmol/kg bw or enrofloxacin 5 mg/kg bw

Row | Structure (SMILES) | Aggregation at 1mM [1] | logD [2] | inhibition at 0.25 µM [3] [%] | survival [4]
1 | C=C(C)C[C@H](NC(=O)[C@H](CCC(=O)O)NC(=O)[C@@H](NC(=O)[C@@H](N)Cc1ccccc1)[C@@H](C)O)C(=O)N1CCC[C@H]1C(=O)N[C@H](C(=O)N[C@H](C(=O)O)[C@@H](C)CC)[C@@H](C)O [compound 019, (S)-4-((2S,3R)-2-((S)-2-amino-3-phenylpropanamido)-3-hydroxybutanamido)-5-(((S)-1-((S)-2-(((2S,3R)-1-(((1S,2S)-1-carboxy-2-methylbutyl)amino)-3-hydroxy-1-oxobutan-2-yl)carbamoyl)pyrrolidin-1-yl)-4-methyl-1-oxopent-4-en-2-yl)amino)-5-oxopentanoic acid] (H-FTE[Leu(4,5-dehydro)]PTI-OH) | weak signal | -1 | 51 | –
2 | C=C(C)C[C@H](NC(=O)CC(O)CNC(=O)[C@@H]1C[C@@H]2CCCC[C@@H]2N1C(=O)[C@H](CC(=C)C)NC(=O)c1ccc(CNC(=O)[C@H](NC(=O)[C@H](N)Cc2ccccc2)C(C)(C)O)cc1)C(=O)O (stereo partly drawn) [compound 105, (2S)-2-(4-((2S,3aS,7aS)-1-((S)-2-(4-(((R)-2-((R)-2-amino-3-phenylpropanamido)-3-hydroxy-3-methylbutanamido)methyl)benzamido)-4-methylpent-4-enoyl)octahydro-1H-indole-2-carboxamido)-3-hydroxybutanamido)-4-methylpent-4-enoic acid.] (H-[dF][dVal(3-OH)][4Amb][Leu(4,5-dehydro)][Oic][X1][Leu(4,5-dehydro)]-OH) | weak signal | -0.37 | 70 | –
3 | CC[C@H](C)[C@@H]1NC(=O)[C@H]([C@@H](C)O)NC(=O)[C@@H]2CCCN2C(=O)[C@H]([C@@H](C)CC)NC(=O)[C@H](CCC(=O)O)NC(=O)[C@H]([C@@H](C)O)NC(=O)[C@H](Cc2ccccc2)NC1=O [compound 012, 3-((3S,6S,9S,12S,15S,18S,23aS)-9-benzyl-6,18-di((S)-sec-butyl)-3,12-bis((R)-1-hydroxyethyl)-1,4,7,10,13,16,19-heptaoxodocosahydro-1H-pyrrolo[1,2-a][1,4,7,10,13,16,19]heptaazacyclohenicosin-15-yl)propanoic acid.] (cyclo(EIPTIFT)) | – | -0.04 | 49 | –
4 | CC[C@H](C)[C@H](NC(=O)[C@H](NC(=O)[C@@H]1[C@@H]2CCCC[C@@H]2CN1C(=O)[C@H](CC(C)(C)C)NC(=O)[C@H](CCC(=O)O)NC(=O)[C@H](NC(=O)[C@@H](N)Cc1ccccc1)C(C)(C)O)C(C)(C)O)C(=O)O [compound 040, (S)-4-((R)-2-((S)-2-amino-3-phenylpropanamido)-3-hydroxy-3-methylbutanamido)-5-(((S)-1-((1S,3aS,7aR)-1-(((R)-1-(((1S,2S)-1-carboxy-2-methylbutyl)amino)-3-hydroxy-3-methyl-1-oxobutan-2-yl)carbamoyl)octahydro-2H-isoindol-2-yl)-4,4-dimethyl-1-oxopentan-2-yl)amino)-5-oxopentanoic acid.] (H-F[dVal(3-OH)]E[tBuAla][X5][dVal(3-OH)]I-OH) | – | 0.67 | 50 | –
5 | CC[C@H](C)[C@H](NC(=O)[C@@H](NC(=O)[C@@H]1C[C@H](O)CN1C(=O)[C@H](CC(C)(C)C)NC(=O)[C@H](CCC(=O)O)NC(=O)[C@H](NC(=O)[C@@H](N)Cc1ccccc1)C(C)(C)O)[C@@H](C)O)C(=O)O [compound 038, (S)-4-((R)-2-((S)-2-amino-3-phenylpropanamido)-3-hydroxy-3-methylbutanamido)-5-(((S)-1-((2S,4S)-2-(((2S,3R)-1-(((1S,2S)-1-carboxy-2-methylbutyl)amino)-3-hydroxy-1-oxobutan-2-yl)carbamoyl)-4-hydroxypyrrolidin-1-yl)-4,4-dimethyl-1-oxopentan-2-yl)amino)-5-oxopentanoic acid] (H-F[dVal(3-OH)]E[tBuAla][cisHyp]TI-OH) | 0.35 | -0.19 | 36 | –
6 | CC(C)(C)C[C@H](NC(=O)CC(O)CNC(=O)[C@@H]1C[C@@H]2CCCC[C@@H]2N1C(=O)[C@H](CC(C)(C)C)NC(=O)c1ccc(CNC(=O)[C@H](N)C(C)(C)O)cc1)C(=O)O (stereo partly drawn) [compound 103, (2S)-2-(4-((2S,3aS,7aS)-1-((S)-2-(4-(((R)-2-amino-3-hydroxy-3-methylbutanamido)methyl)benzamido)-4,4-dimethylpentanoyl)octahydro-1H-indole-2-carboxamido)-3-hydroxybutanamido)-4,4-dimethylpentanoic acid] (H-[dVal(3-OH)][4Amb][tBuAla][Oic][X1][tBuAla]-OH) | weak signal | 0.44 | 12 | –
7 | CC[C@@H](C)[C@H]1NC(=O)[C@H]([C@@H](C)O)NC(=O)C2CCCN2C(=O)[C@@H](CC(C)(C)C)NC(=O)[C@](C)(NC(=O)[C@@H](CCC(=O)O)NC(=O)[C@H](NC(=O)[C@H](N)Cc2ccccc2)[C@H](C)O)CCC/C=C\CCCC[C@@](C)(C(=O)N[C@@H](CCCNC(=N)N)C(=O)O)NC1=O (stereo partly drawn) [compound 028, (4R)-4-((2R,3S)-2-((R)-2-amino-3-phenylpropanamido)-3-hydroxybutanamido)-5-(((3S,6R,9S,19R,22R,Z)-6-((R)-sec-butyl)-9-(((S)-1-carboxy-4-guanidinobutyl)carbamoyl)-3-((R)-1-hydroxyethyl)-9,19-dimethyl-22-neopentyl-1,4,7,20,23-pentaoxo-2,3,4,5,6,7,8,9,10,11,12,13,16,17,18,19,20,21,22,23,25,26,27,27a-tetracosahydro-1H-pyrrolo[1,2-d][1,4,7,10,13]pentaazacyclopentacosin-19-yl)amino)-5-oxopentanoic acid] (H-[dF][dT][dE][R5][d(tBuAla)][ξP]T[dI][X2]R-OH; staple (Z) 4-9) | 1.39 | -1 | 45 | –
8 | C=C(C)C[C@H](NC(=O)[C@H](CCC(=O)O)NC(=O)[C@H](NC(=O)[C@H](N)Cc1ccccc1)C(C)(C)O)C(=O)N1CCC[C@H]1C(=O)N[C@H](C(=O)N[C@H](C(=O)O)[C@@H](C)CC)[C@@H](C)O [compound 036, (S)-4-((R)-2-((R)-2-amino-3-phenylpropanamido)-3-hydroxy-3-methylbutanamido)-5-(((S)-1-((S)-2-(((2S,3R)-1-(((1S,2S)-1-carboxy-2-methylbutyl)amino)-3-hydroxy-1-oxobutan-2-yl)carbamoyl)pyrrolidin-1-yl)-4-methyl-1-oxopent-4-en-2-yl)amino)-5-oxopentanoic acid] (H-[dF][dVal(3-OH)]E[Leu(4,5-dehydro)]PTI-OH) | weak signal | -0.89 | 40 | –
9 | CC[C@H](C)[C@H](NC(=O)[C@@H](NC(=O)[C@@H]1CCCN1C(=O)[C@H](CC(C)(C)C)NC(=O)[C@@H](CCC(=O)O)NC(=O)[C@@H](NC(=O)[C@@H](N)Cc1ccccc1)C(C)(C)O)[C@@H](C)O)C(=O)O [compound 016, (R)-4-((S)-2-((S)-2-amino-3-phenylpropanamido)-3-hydroxy-3-methylbutanamido)-5-(((S)-1-((S)-2-(((2S,3R)-1-(((1S,2S)-1-carboxy-2-methylbutyl)amino)-3-hydroxy-1-oxobutan-2-yl)carbamoyl)pyrrolidin-1-yl)-4,4-dimethyl-1-oxopentan-2-yl)amino)-5-oxopentanoic acid] (H-F[Val(3-OH)][dE][tBuAla]PTI-OH) | 0.18 | -0.3 | 48 | –
10 | C=C(C)C[C@H](NC(=O)[C@@H](NC(=O)[C@@H]1CCCN1C(=O)[C@@H](CC(=C)C)NC(=O)[C@H](CCC(=O)O)NC(=O)[C@H](NC(=O)[C@H](N)Cc1ccccc1)C(C)(C)O)[C@@H](C)O)C(=O)O [compound 049, (S)-2-((2S,3R)-2-((S)-1-((R)-2-((S)-2-((R)-2-((R)-2-amino-3-phenylpropanamido)-3-hydroxy-3-methylbutanamido)-4-carboxybutanamido)-4-methylpent-4-enoyl)pyrrolidine-2-carboxamido)-3-hydroxybutanamido)-4-methylpent-4-enoic acid.] (H-[dF][dVal(3-OH)]E[X4]PT[Leu(4,5-dehydro)]-OH) | – | -0.71 | 52 | –
11 | CCN1CCN(c2cc3c(cc2F)c(=O)c(C(=O)O)cn3C2CC2)CC1 [enrofloxacin, reference compound] | – | – | – | neither antibiotics nor VT-109 monotherapy (0.5 µmol/kg bw) significantly improved survival
12 | CC[C@H](C)[C@@H]1NC(=O)[C@H]([C@@H](C)O)NC(=O)[C@@H]2CCCN2C(=O)[C@H]([C@@H](C)CC)NC(=O)[C@H](CCC(=O)O)NC(=O)[C@H]([C@@H](C)O)NC(=O)[C@H](Cc2ccccc2)NC(=O)CNC(=O)CNC(=O)[C@H]([C@@H](C)O)NC(=O)CC[C@@H](C(=O)O)NC(=O)[C@@H]2CCCN2C(=O)[C@H](CC(C)C)NC1=O [compound 013, (6S,9S,12S,15S,24S,29S,31aS,37S,40S,43S,45aS)-15-benzyl-6,40-di((S)-sec-butyl)-9-(2-carboxyethyl)-12,24,43-tris((R)-1-hydroxyethyl)-37-isobutyl-5,8,11,14,17,20,23,26,31,36,39,42,45-tridecaoxotetratetracontahydro-5H-dipyrrolo[2,1-c:2',1'-o][1,4,7,10,13,16,19,22,25,28,31,34,37]tridecaazacyclohentetracontine-29-carboxylic acid] (TGGFTEIPTILPE-OH; lactam N-13) | – | -0.27 | 51 | –
